Assay results reported in the NIST ThermoML archive (doi:10.1016/j.jct.2011.04.022).
“And” between values parts separate entries of the source, which are not always exact repeats. Equal entries are not always repeated.

Key:
[1] = Crystal, Calculated from knudsen effusion weight loss
[2] = molar enthalpy of vaporization or sublimation; conditions: 298.15 K; Crystal; Second Law analysis of vapor pressure data

Nc1ccccc1-n1cccc1 [1-(2-aminophenyl)pyrrole]
[1]
Conditions	vapor or sublimation pressure
296.12 K	6.43e-05 kPa and 6.33e-05 kPa and 6.58e-05 kPa
298.22 K	8.56e-05 kPa and 8.51e-05 kPa and 8.36e-05 kPa
300.2 K	0.000112 kPa and 0.000108 kPa and 0.000107 kPa
302.11 K	0.000137 kPa and 0.000144 kPa
304.19 K	0.000179 kPa and 0.000182 kPa and 0.000178 kPa
306.19 K	0.00024 kPa and 0.000228 kPa and 0.000227 kPa
308.08 K	0.000301 kPa and 0.0003 kPa and 0.000297 kPa
310.2 K	0.000388 kPa and 0.000386 kPa and 0.000377 kPa
312.2 K	0.000503 kPa and 0.000481 kPa and 0.00048 kPa
314.11 K	0.000643 kPa and 0.000635 kPa and 0.000623 kPa
316.18 K	0.000816 kPa and 0.000808 kPa and 0.000788 kPa
318.18 K	0.001059 kPa and 0.001011 kPa and 0.000991 kPa

Conditions	molar enthalpy [kcal/mol]
[2]	23.61
